These results are taken from US20060183147A1, “Methods of identifying genes which modulate myelination” (Elan Pharmaceuticals, Inc., priority 2005, published 2006).

The test system of assay [1] is cortical oligodendrocytes. To be noted: added to the co-cultures; cited from earlier work.
The subject of assay [2] is optic nerve oligodendrocytes. Description: In vitro myelination assay: co-culture of retinal ganglion cells and optic nerve oligodendrocytes. In kind it is cell-based, rat. How it is done: Co-cultures of RGCs and optic nerve oligodendrocytes were prepared and used as follows. Purified oligodendrocytes were plated on PDL/merosin (Chemicon) substrate-coated tissue culture dishes in defined DMEM Sato medium, promoting proliferation for two days. After 2 days, the medium was switched to defined DMEM Sato medium, which contained factors to promote differentiation. Twenty-four hours after the switch to differentiation medium, ADORA1 agonists were added. Retinal ganglion cells were plated 24 hours thereafter, and the medium consisted of 50% astrocyte-conditioned medium (method see above) with DMEM Sato medium mixed with fresh defined Neurobasal™ (Invitrogen) Sato medium, containing B27™ supplement and growth factors (BDNF and CNTF), to promote retinal ganglion cell survival and 0.5% FBS. The FBS was added to help retinal ganglion cell survival. This is because forskolin, which up-regulates cAMP, could not be used when adding any ADORA agonists or antagonists, since these receptors are G-protein-coupled receptors and therefore, regulators of cAMP themselves. Cultures were grown for two weeks, with medium changes occurring every three days.
Optic nerve or cortical oligodendrocytes were purified from postnatal day 2-day 5 old rat pups by immuno-panning with the A2B5 antibody (ATCC). Retinal ganglion cells were purified from 5 day old rats by immunopanning with the Thy1 antibody T11D7.
Purified oligodendrocytes were plated on PDL/merosin substrate-coated tissue culture dishes in defined DMEM Sato medium, promoting proliferation for two days. After 2 days, the medium was switched to defined DMEM Sato medium, containing factors promoting differentiation. Twenty-four hours after the switch to differentiation medium, ADORA1 agonists were added. Retinal ganglion cells were plated 24 hours thereafter, and medium consisted of astrocyte-conditioned medium with DMEM Sato medium mixed with defined Neurobasal™ Sato medium, containing growth factors promoting retinal ganglion cell survival and 0.5% FBS.
Cultures were grown for two weeks, with medium changes occurring every three days. Control co-cultures were devoid of myelin segments, whereas oligodendrocytes co-cultures with ADORA1 agonist contained myelin segments originating from approximately 90% of the oligodendrocytes in these cultures.
To address whether the effect of the adenosine 1 receptor (ADORA1) agonist only affects oligodendrocytes, or also affects retinal ganglion cells (RGCs) to lead to myelination, purified rat optic nerve oligodendrocytes were plated on PEI-pre-coated culture dishes (6-well plates, Falcon BD) in mitogenic medium and cultured for two days. After two days, oligodendrocytes were switched to differentiation medium and the agonist MECA (Sigma) was added at a 200 μM concentration to this culture medium 24 hours later. The agonist was removed by washing the cells at 24, 48 and 72 hours, respectively, after its administration. Oligodendrocytes were subsequently taken off the PEI plates by incubation with Trypsin (535 units/ml) in Earle's Balanced Salt Solution (EBSS; Invitrogen) at 37° C. for 5 minutes, washed with PBS containing 30% FBS (Hyclone) and were plated onto RGCs grown for one week on PDL/merosin substrate. Cultures were fixed for immunohistochemistry two weeks after co-plating the oligodendrocytes with the RGCs. Since the oligodendrocytes were pre-incubated separately with the ADORA1 agonist before they were added to the RGCs, the myelin figures observed in FIG. 6 are due to the switch in the oligodendrocytes themselves from a non-myelinating to a myelinating phenotype.
To address the question of whether it is a permanent or a reversible switch if the oligodendrocytes are cultured without neurons, oligodendrocytes were treated with ADORA1 agonist for 72 hours and kept in culture alone for another 5 days. Cultured oligodendrocytes were then removed from the PEI-coated plate and co-cultured with RGCs grown for one week in culture. […]

Consider `Nc1ncnc2c1ncn2[C@@H]1O[C@H](CO)[C@@H](O)[C@H]1O` [adenosine], for which the “amount of myelin observed” value in assay [1] is “increased the amount of myelin observed”. Further, the “adenosine responsiveness as measured by percentage of myelination” value in assay [2] (early versus late stage of oligodendrocyte differentiation) is given as “more responsive to adenosine at the early stage of differentiation”. Besides, the “oligodendrocytes establishing segments of myelin on individual axons” value in assay [2] (in the presence of adenosine or ADORA1 agonist, co-culture grown two weeks, control devoid of myelin segments) is recorded as “approximately 90%”.
